The test addresses T1, human Cav2.2α (α1B) subunit, along with the human β3 and α2δ1 auxiliary subunits (Homo sapiens, UniProt Q00975).
T1 construct: expressed in transfected cells; plasmids pCIN5-hCav2.2, pCIH-hCav β3, pCIP-α2δ1
Nature of the test: hCav2.2 assay (IonWorks planar array electrophysiology). Type of test: cell-based. To be noted: HEK293 cells; inhibition of current elicited by the 1st depolarising pulse by 50%; read-out: mean pIC50 value (tonic pIC50) (converted). Here is the method:
Compounds of the invention may be tested for in vitro biological activity in the hCav2.2 assay in accordance with the following studies:
Stable cell lines expressing the human Cav2.2α (α1B) subunit, along with the human β3 and α2δ1 auxiliary subunits were created following sequential transfection and selection of human embryonic kidney (HEK293) cells. HEK293 cells were cultured in Dulbecco's modified Eagles media/F12 media (Invitrogen, Cat #041-95750V) containing 10% fetal bovine serum, with added L-glutamine (2 mM; Invitrogen, Cat #25030-024) and non-essential amino acids (5%; Invitrogen, Cat #11140-035). Initially HEK293 cells were transfected with two plasmid vectors for expression of the hCav2.2α subunit (pCIN5-hCav2.2 which carries a neomycin resistance marker) and the hCav β3 subunit (pCIH-hCav β3 which carries a hygromycin resistance marker). Clonal cell lines were isolated following selection in media supplemented with 0.4 mg ml^−1 Geneticin G418 (Invitrogen, Cat #10131-027) and 0.1 mg ml^−1 hygromycin (Invitrogen, Cat #10687-010). These clonal cell lines were assessed for Cav2.2α/β3-mediated current expression using the IonWorks planar array electrophysiology technology (described below). A clonal line was identified that gave a reasonable level of functional Cav2.2α/β3 current expression. This cell line was transfected with a plasmid vector for expression of the human α2δ1 subunit (pCIP-α2δ1 which carries a puromycin resistance marker) and clonal cell lines isolated following selection in media containing 0.62 μg ml^−1 puromycin (Sigma, Cat # P-7255), in addition to 0.4 mg ml^−1 Geneticin G418 and 0.1 mg ml^−1 hygromycin. Several cell lines were identified that gave robust levels of Cav2.2α/β3/α2δ1-mediated current expression and one of these was selected for compound profiling. Expression of all three subunits within this cell line was continuously maintained by the inclusion of G418 (0.4 mg ml^−1), hygromycin (0.1 mg ml^−1) and puromycin (0.62 μg ml^−1). Cells were maintained at 37° C. in a humidified environment containing 5% CO2 in air. Cells were liberated from the T175 culture flasks for passage and harvesting using TrpLE (Invitrogen, Cat #12604-013).
Cells were grown to 30-60% confluence in T175 flasks and maintained at 30° C. for 24 hrs prior to recording. Cells were lifted by removing the growth media, washing with Ca^2+free PBS (Invitrogen, Cat #14190-094) and incubating with 3 ml of warmed (37° C.) TrpLE (Invitrogen, Cat #12604-013) for 6 minutes. Lifted cells were suspended in 10 ml of extracellular buffer. Cell suspension was then placed into a 15 ml tube and centrifuged for 2 minutes at 700 rpm. After centrifugation, the supernatant was removed and the cell pellet was resuspended in 4.5 ml of extracellular solution.
Currents were recorded at room temperature (21-23° C.) using the IonWorks planar array electrophysiology technology (Molecular Devices Corp.). Stimulation protocols and data acquisition were carried out using a microcomputer (Dell Pentium 4). In order to determine planar electrode hole resistances (Rp), a 10 mV, 160 ms potential difference was applied across each hole. These measurements were performed before cell addition. After cell addition a seal test was performed prior to antibiotic (amphotericin) circulation to achieve intracellular access. Leak subtraction was conducted in all experiments by applying a 160 ms hyperpolarizing (10 mV) prepulse 200 ms before the test pulses to measure leak conductance. Test pulses stepping from the holding potential (VH) of −90 mV to +10 mV were applied for 20 ms and repeated 10 times at a frequency of 10 Hz. In all experiments, the test pulse protocol was performed in the absence (pre-read) and presence (post-read) of a compound. Pre- and post-reads were separated by a compound addition followed by a 3-3.5 min incubation.
The intracellular solution contained the following (in mM): K-gluconate 120, KCl 20 mM, MgCl2 5, EGTA 5, HEPES 10, adjusted to pH 7.3. […]
T1 sequence (Q00975 whole entry): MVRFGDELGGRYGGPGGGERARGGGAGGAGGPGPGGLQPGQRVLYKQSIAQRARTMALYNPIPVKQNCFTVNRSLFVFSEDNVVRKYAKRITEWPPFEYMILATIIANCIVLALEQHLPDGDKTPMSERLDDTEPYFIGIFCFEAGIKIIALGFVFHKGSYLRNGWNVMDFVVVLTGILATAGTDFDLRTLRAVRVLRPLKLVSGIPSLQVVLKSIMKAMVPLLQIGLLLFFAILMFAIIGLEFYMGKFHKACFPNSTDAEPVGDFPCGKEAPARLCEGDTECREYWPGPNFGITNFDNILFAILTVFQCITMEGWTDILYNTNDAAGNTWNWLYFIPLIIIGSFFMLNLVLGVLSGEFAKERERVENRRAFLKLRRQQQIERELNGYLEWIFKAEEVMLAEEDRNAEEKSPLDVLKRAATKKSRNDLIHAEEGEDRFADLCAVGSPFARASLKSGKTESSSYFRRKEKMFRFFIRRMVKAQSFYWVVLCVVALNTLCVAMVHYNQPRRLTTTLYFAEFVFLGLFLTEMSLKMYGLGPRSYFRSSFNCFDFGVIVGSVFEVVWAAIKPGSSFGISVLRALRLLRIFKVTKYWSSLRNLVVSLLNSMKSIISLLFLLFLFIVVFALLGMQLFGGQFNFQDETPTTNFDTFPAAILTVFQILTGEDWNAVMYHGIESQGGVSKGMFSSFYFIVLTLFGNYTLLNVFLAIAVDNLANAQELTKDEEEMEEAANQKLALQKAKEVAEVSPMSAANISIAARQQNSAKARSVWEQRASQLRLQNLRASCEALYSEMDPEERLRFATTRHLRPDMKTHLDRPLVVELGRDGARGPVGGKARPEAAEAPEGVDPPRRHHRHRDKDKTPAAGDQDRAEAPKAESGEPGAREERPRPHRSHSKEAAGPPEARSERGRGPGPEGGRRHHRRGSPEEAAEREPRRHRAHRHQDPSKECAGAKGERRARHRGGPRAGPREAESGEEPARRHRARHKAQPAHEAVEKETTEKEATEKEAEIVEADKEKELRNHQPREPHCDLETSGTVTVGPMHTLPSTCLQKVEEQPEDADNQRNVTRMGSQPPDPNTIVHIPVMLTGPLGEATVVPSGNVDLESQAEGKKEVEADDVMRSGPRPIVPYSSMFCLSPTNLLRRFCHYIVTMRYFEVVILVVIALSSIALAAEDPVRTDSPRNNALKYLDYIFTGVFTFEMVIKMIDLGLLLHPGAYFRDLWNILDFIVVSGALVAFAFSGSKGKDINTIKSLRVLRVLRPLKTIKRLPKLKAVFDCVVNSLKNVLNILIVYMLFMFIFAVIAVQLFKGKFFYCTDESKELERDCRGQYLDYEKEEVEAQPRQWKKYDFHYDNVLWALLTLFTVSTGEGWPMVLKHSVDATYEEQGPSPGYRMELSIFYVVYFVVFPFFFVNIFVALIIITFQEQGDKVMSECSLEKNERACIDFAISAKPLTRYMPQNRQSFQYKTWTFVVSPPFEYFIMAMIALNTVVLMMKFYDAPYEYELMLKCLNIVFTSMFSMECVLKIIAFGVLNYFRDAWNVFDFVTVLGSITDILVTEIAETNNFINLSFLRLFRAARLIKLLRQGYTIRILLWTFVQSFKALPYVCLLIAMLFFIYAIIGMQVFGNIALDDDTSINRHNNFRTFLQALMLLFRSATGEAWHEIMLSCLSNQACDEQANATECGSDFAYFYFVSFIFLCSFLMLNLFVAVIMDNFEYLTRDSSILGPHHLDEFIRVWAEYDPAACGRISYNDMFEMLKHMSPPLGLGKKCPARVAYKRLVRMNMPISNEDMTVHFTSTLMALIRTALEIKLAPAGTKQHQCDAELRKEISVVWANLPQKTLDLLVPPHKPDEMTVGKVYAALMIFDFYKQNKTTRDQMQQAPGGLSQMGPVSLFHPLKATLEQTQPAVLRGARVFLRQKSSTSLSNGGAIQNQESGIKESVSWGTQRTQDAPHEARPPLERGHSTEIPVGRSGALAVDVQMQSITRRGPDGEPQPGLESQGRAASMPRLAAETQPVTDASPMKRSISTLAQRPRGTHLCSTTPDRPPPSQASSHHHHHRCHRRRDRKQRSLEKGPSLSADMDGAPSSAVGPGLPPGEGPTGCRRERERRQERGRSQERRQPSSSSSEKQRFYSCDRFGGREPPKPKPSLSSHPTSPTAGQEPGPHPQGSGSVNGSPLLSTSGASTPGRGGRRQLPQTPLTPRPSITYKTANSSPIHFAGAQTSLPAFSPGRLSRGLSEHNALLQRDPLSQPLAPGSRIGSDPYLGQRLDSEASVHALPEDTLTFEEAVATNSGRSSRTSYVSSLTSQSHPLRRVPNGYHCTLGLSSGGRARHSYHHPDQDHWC
T1 sequence (P54284 whole entry partner): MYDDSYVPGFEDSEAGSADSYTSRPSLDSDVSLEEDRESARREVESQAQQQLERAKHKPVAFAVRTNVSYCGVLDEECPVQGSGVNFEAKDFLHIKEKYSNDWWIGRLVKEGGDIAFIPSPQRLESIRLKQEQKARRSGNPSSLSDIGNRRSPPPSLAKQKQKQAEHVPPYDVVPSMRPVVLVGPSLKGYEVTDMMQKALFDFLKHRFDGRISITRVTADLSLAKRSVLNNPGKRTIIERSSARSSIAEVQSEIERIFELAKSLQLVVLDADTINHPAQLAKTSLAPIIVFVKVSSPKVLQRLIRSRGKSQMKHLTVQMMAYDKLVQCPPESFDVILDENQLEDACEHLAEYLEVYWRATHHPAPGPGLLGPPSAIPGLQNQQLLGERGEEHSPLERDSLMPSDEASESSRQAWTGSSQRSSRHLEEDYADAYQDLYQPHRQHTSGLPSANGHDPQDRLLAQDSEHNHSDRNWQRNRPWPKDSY
T1 sequence (P54289 25-946 partner limits assumed): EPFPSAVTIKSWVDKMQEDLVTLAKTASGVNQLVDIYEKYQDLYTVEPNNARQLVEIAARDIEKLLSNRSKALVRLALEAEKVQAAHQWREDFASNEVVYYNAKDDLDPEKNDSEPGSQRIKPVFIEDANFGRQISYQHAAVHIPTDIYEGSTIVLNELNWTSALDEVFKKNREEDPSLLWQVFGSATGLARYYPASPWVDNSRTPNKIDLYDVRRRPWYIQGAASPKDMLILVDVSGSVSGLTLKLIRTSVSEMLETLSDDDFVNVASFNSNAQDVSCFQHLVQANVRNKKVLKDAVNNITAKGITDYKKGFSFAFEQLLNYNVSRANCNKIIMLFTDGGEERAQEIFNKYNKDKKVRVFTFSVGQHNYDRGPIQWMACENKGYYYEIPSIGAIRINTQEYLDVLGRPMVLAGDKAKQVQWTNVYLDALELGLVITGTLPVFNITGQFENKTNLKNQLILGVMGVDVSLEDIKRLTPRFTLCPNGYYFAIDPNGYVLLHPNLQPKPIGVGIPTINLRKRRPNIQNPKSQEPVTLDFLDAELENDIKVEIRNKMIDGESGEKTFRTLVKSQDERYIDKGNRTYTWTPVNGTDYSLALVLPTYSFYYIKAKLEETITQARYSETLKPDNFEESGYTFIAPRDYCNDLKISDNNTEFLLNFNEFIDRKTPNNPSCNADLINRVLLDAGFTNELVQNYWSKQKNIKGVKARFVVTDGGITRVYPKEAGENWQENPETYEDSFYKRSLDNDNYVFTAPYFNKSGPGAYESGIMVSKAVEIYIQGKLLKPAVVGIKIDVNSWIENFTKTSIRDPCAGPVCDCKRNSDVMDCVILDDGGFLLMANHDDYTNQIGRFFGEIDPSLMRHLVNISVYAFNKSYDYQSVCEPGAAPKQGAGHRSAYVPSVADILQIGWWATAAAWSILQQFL
T1 sequence (P54289 947-1103 partner limits assumed): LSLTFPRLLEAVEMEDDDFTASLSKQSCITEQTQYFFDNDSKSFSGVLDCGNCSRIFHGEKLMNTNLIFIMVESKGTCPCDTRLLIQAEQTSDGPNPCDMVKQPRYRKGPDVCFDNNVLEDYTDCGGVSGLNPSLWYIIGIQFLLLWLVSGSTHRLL
`O=C1NCCCC12CCCN(S(=O)(=O)c1cc(F)cc(C(F)(F)F)c1)C2` (stereo not drawn) [Compound 17, 8-{[3-Fluoro-5-(trifluoromethyl)phenyl]sulfonyl}-2,8-diazaspiro[5.5]undecan-1-one]: the IC50 was no less than 31.6 µM. On to `Cc1ccc(S(=O)(=O)N2CCCC3(CCNC3=O)C2)c(C(F)(F)F)c1` (stereo not drawn) [Compound 30, 7-{[4-Methyl-2-(trifluoromethyl)phenyl]sulfonyl}-2,7-diazaspiro[4.5]decan-1-one], for which the IC50 is no less than 31.6 µM. `Cc1ccc(C(F)(F)F)cc1S(=O)(=O)N1CCCC2(CCNC2=O)C1` (stereo not drawn) [Compound 26, 7-{[2-Methyl-5-(trifluoromethyl)phenyl]sulfonyl}-2,7-diazaspiro[4.5]decan-1-one]: the IC50 was no less than 31.6 µM.

As to `COc1ccc(C(F)(F)F)cc1S(=O)(=O)N1CCCC2(CCNC2=O)C1` (stereo not drawn) [Compound 32, 7-{[2-(Methyloxy)-5-(trifluoromethyl)phenyl]sulfonyl}-2,7-diazaspiro[4.5]decan-1-one], the IC50 is no less than 31.6 µM.

Regarding `CCOc1ccc(S(=O)(=O)N2CCCC3(CCCN(C)C3=O)C2)cc1` (stereo not drawn) [Compound 34, 8-{[4-(Ethyloxy)phenyl]sulfonyl}-2-methyl-2,8-diazaspiro[5.5]undecan-1-one], the IC50 was no less than 31.6 µM.

As to `Cc1ccc(S(=O)(=O)N2CCCC3(CCNC3=O)C2)c(OC(F)(F)F)c1` (stereo not drawn) [Compound 24, 7-({4-Methyl-2-[(trifluoromethyl)oxy]phenyl}sulfonyl)-2,7-diazaspiro[4.5]decan-1-one], the IC50 was no less than 31.6 µM. As for `O=C1NCCC12CCCN(S(=O)(=O)c1cccc(OC(F)F)c1)C2` (stereo not drawn) [Compound 33, 7-({3-[(Difluoromethyl)oxy]phenyl}sulfonyl)-2,7-diazaspiro[4.5]decan-1-one], the figure is no less than 31.6 µM; as for `Cc1cc(C(F)(F)F)cc(S(=O)(=O)N2CCCC3(CCNC3=O)C2)c1` (stereo not drawn) [Compound 25, 7-{[3-Methyl-5-(trifluoromethyl)phenyl]sulfonyl}-2,7-diazaspiro[4.5]decan-1-one], no less than 31.6 µM; as for `O=C1NCCC12CCCN(S(=O)(=O)c1cccc(OC(F)(F)F)c1)C2` (stereo not drawn) [Compound 15, 7-({3-[(Trifluoromethyl)oxy]phenyl}sulfonyl)-2,7-diazaspiro[4.5]decan-1-one], no less than 31.6 µM. For the molecule `O=C1NCCC12CCCN(S(=O)(=O)c1ccc(C(F)(F)F)cc1Br)C2` (stereo not drawn) [Compound 21, 7-{[2-Bromo-4-(trifluoromethyl)phenyl]sulfonyl}-2,7-diazaspiro[4.5]decan-1-one], the IC50 was no less than 31.6 µM. In the case of `O=C1NCCC12CCCN(S(=O)(=O)c1ccc(OC(F)(F)F)c(Cl)c1)C2` (stereo not drawn) [Compound 20, 7-({3-Chloro-4-[(trifluoromethyl)oxy]phenyl}sulfonyl)-2,7-diazaspiro[4.5]decan-1-one], the IC50 was no less than 31.6 µM. As to `O=C1NCCC12CCCN(S(=O)(=O)c1cc(F)cc(C(F)(F)F)c1)C2` (stereo not drawn) [Compound 14, 7-{[3-Fluoro-5-(trifluoromethyl)phenyl]sulfonyl}-2,7-diazaspiro[4.5]decan-1-one], the IC50 was no less than 31.6 µM. As for `O=C1OCCC12CCCN(S(=O)(=O)c1ccc(OC(F)(F)F)cc1)C2` (stereo not drawn) [Compound 29, 7-({4-[(Trifluoromethyl)oxy]phenyl}sulfonyl)-2-oxa-7-azaspiro[4.5]decan-1-one], the figure is no less than 31.6 µM; as for `O=C1NCCC12CCCN(S(=O)(=O)c1cccc(C(F)(F)F)c1)C2` (stereo not drawn) [Compound 9, 7-{[3-(Trifluoromethyl)phenyl]sulfonyl}-2,7-diazaspiro[4.5]decan-1-one], no less than 31.6 µM; as for `O=C1NCCCC12CCCN(S(=O)(=O)c1ccc(C(F)(F)F)cc1)C2` (stereo not drawn) [Compound 10, 8-{[4-(Trifluoromethyl)phenyl]sulfonyl}-2,8-diazaspiro[5.5]undecan-1-one], no less than 31.6 µM. On to `O=C1NCCCC12CCCN(S(=O)(=O)c1ccc(OC(F)(F)F)cc1)C2` (stereo not drawn) [Compound 13, 8-({4-[(Trifluoromethyl)oxy]phenyl}sulfonyl)-2,8-diazaspiro[5.5]undecan-1-one], for which the IC50 is no less than 31.6 µM. `O=C1NCCCC12CCCN(S(=O)(=O)c1cc(C(F)(F)F)ccc1C(F)(F)F)C2` (stereo not drawn) [Compound 18, 8-{[2,5-Bis(trifluoromethyl)phenyl]sulfonyl}-2,8-diazaspiro[5.5]undecan-1-one]: the IC50 was no less than 31.6 µM. As for `O=C1NCCC12CCCN(S(=O)(=O)c1cc(C(F)(F)F)ccc1C(F)(F)F)C2` (stereo not drawn) [Compound 16, 7-{[2,5-Bis(trifluoromethyl)phenyl]sulfonyl}-2,7-diazaspiro[4.5]decan-1-one], the IC50 is no less than 31.6 µM. On to `O=C1NCCC12CCCN(S(=O)(=O)c1cc(C(F)(F)F)cc(C(F)(F)F)c1)C2` (stereo not drawn) [Compound 8, 7-{[3,5-Bis(trifluoromethyl)phenyl]sulfonyl}-2,7-diazaspiro[4.5]decan-1-one], for which the IC50 was no less than 31.6 µM. As for `CN1CCC2(CCCN(S(=O)(=O)c3ccc(C(F)(F)F)cc3)C2)C1=O` (stereo not drawn) [Compound 2, 2-Methyl-7-{[4-(trifluoromethyl)phenyl]sulfonyl}-2,7-diazaspiro[4.5]decan-1-one], the figure is no less than 31.6 µM; as for `O=C1NCCCC12CCCN(S(=O)(=O)c1cccc(OC(F)F)c1)C2` (stereo not drawn) [Compound 31, 8-({3-[(Difluoromethyl)oxy]phenyl}sulfonyl)-2,8-diazaspiro[5.5]undecan-1-one], no less than 31.6 µM. On to `Cc1ccc(S(=O)(=O)N2CCCC3(CCNC3=O)C2)c(C)c1` (stereo not drawn) [Compound 7, 7-[(2,4-Dimethylphenyl)sulfonyl]-2,7-diazaspiro[4.5]decan-1-one], for which the IC50 was no less than 31.6 µM. Turning to `O=C1OCCC12CCCN(S(=O)(=O)c1ccc(C(F)(F)F)cc1)C2` (stereo not drawn) [Compound 28, 7-{[4-(Trifluoromethyl)phenyl]sulfonyl}-2-oxa-7-azaspiro[4.5]decan-1-one], the IC50 was no less than 31.6 µM. Take `CN1CCCC2(CCCN(S(=O)(=O)c3ccc(C(F)(F)F)cc3)C2)C1=O` (stereo not drawn) [Compound 5, 2-Methyl-8-{[4-(trifluoromethyl)phenyl]sulfonyl}-2,8-diazaspiro[5.5]undecan-1-one]: the IC50 is no less than 31.6 µM. In the case of `Cc1ccc(S(=O)(=O)N2CCCC3(CCCNC3=O)C2)cc1` (stereo not drawn) [Compound 35, 8-[(4-Methylphenyl)sulfonyl]-2,8-diazaspiro[5.5]undecan-1-one], the IC50 is no less than 31.6 µM.

`O=C1NCCCC12CCCN(S(=O)(=O)c1cc(C(F)(F)F)cc(C(F)(F)F)c1)C2` (stereo not drawn) [Compound 27, 8-{[3,5-Bis(trifluoromethyl)phenyl]sulfonyl}-2,8-diazaspiro[5.5]undecan-1-one]: the IC50 was no less than 31.6 µM. Take `O=C1NCCC12CCCN(S(=O)(=O)c1ccc(OC(F)(F)F)cc1)C2` (stereo not drawn) [Compound 6, 7-({4-[(Trifluoromethyl)oxy]phenyl}sulfonyl)-2,7-diazaspiro[4.5]decan-1-one]: the IC50 was no less than 31.6 µM. Take `Cc1ccc(S(=O)(=O)N2CCCC3(CCNC3=O)C2)cc1C(F)(F)F` (stereo not drawn) [Compound 23, 7-{[4-Methyl-3-(trifluoromethyl)phenyl]sulfonyl}-2,7-diazaspiro[4.5]decan-1-one]: the IC50 is no less than 31.6 µM. Regarding `O=C1NCCC12CCCN(S(=O)(=O)c1cc(Cl)cc(Cl)c1)C2` (stereo not drawn) [Compound 19, 7-[(3,5-Dichlorophenyl)sulfonyl]-2,7-diazaspiro[4.5]decan-1-one], the IC50 is no less than 31.6 µM. For `O=C1NCCCC12CCCN(S(=O)(=O)c1cccc(C(F)(F)F)c1)C2` (stereo not drawn) [Compound 12, 8-{[3-(Trifluoromethyl)phenyl]sulfonyl}-2,8-diazaspiro[5.5]undecan-1-one], the IC50 was no less than 31.6 µM.
